Source: patent US20250143290A1, “AGROCHEMICAL COMPOSITION COMPRISING AT LEAST ONE AGROCHEMICAL ACTIVE COMPONENT AND A SOLVENT” (MINAGRO SRL, priority 2022, published 2025)

Tests used:
[1] = Experimental solubility in saturation (MT 181, HPLC); details: for solubility: organic solvent or mixture, thermodynamic from solid
Source text: Said saturated solutions were subsequently analyzed by HPLC to determine the agrochemical active component concentration. The samples were centrifuged and filtered twice through 1.6 and 0.45 μm filters to remove any extraneous material prior to analysis.
For each combination of agrochemical active component, a calibration curve was established to plot the instrumental response, e.g., the analytical signal, changes with the concentration of the agrochemical active component.

[2] = Hansen and Hildebrand solubility parameters
Source text: The Hansen solubility parameters are used for predicting if one material will dissolve in another and form a (homogeneous) solution.
Furthermore, solvents with similar Hansen solubility parameters will have similar solubility characteristics, including which agrochemical active components will and which agrochemical active components will not dissolve in the solvents.

Lactuca sativa = assay: Phytotoxicity study on lettuce; type: in vivo; details: lettuce Lucrecia RZ sprayed until saturation at 1%, 2%, 5% and 10%; 5 and 10 days after spraying
Procedure: The aim of this experiment is to determine if these solvents can cause phytotoxicity on lettuce at different concentrations. Lettuce of the Lucrecia RZ variety was sown in potting soil and transplanted into 3L pots. For each of the solvents, four concentrations were tested: 1%, 2%, 5% and 10%. A control (water) was also performed. […] Fifteen replicates per treatment were conducted. A monitoring of the appearance of potential spots due to phytotoxicity is carried out 5 days and 10 days after spraying.

[3] = system: microorganisms of the inoculum
Procedure: The test duration is 28 days. The vessels contained 250 ml of the inoculated buffered mineral salt medium and the test material (test substance or reference substance) as the sole carbon source. To each test series blanks (without test material) were set up to run in parallel. Incubation was conducted at 22±1° C. in diffuse light and agitation by magnetic stirrers. All analyses were conducted at least in duplicate. Oxygen consumption was continuously measured with a respirometer. The amount of oxygen taken up by the microorganisms during biodegradation (biological oxygen demand; BOD) is compared with the chemical oxygen demand (COD) of the test substance. The percent biodegradation of the test substance is calculated from the BOD in relation to the COD or alternative of the theoretical oxygen demand (ThOD) of the test substance. The test material (92 mg/L) was distributed in a thin layer on an inert carrier (glass fiber filter) and added directly to the aqueous medium.

Compound | Hansen Solubility Parameters δd [2] | Hansen Solubility Parameters δn [2] | Hansen Solubility Parameters δp [2] | Hildebrand δ [2] | also measured
COC(=O)Nc1cccc(OC(=O)Nc2cccc(C)c2)c1 [Phenmidipham] | – | – | – | – | Solubility in saturation ([1]; in n-butyl THF, saturated solution MT 181, HPLC, pure active ingredient): 35.66 g/L; Solubility in saturation ([1]; in t-butyl THF, saturated solution MT 181, HPLC, pure active ingredient): 37.11 g/L
Nc1c(Cl)c(F)nc(OCC(=O)O)c1Cl [Fluroxypyr] | – | – | – | – | Solubility in saturation [1]: 546.25 g/L; solubility ([1]; Solubility in saturation): 537 mg/mL
CC1=CC(=O)CC(C)(C)C1 [Isophorone] | 16.6 J/mL | 7.4 J/mL | 8.2 J/mL | 19.94 J/mL | –
Cc1ccc(C)cc1 [p-Xylène] | 17.6 J/mL | 3.1 J/mL | 1 J/mL | 17.90 J/mL | –
CC(C)(C)OCC1CCCO1 (stereo not shown) [t-butyl THF, 2-(tert-Butoxymethyl)tetrahydrofuran] | – | – | – | – | phytotoxicity on salads (spots) (Lactuca sativa): absence of phytotoxicity
CCCCOC(C)=O [n-butyl acetate] | 15.8 J/mL | 6.3 J/mL | 3.7 J/mL | 17.41 J/mL | –
OCC1CCCO1 (stereo not shown) [THFA TetraHydroFurfurylAlcohol, TetraHydroFurfurylAlcohol] | 17.8 J/mL | 10.2 J/mL | 8.2 J/mL | 22.09 J/mL | –
OC(Cc1ccccc1Cl)(Cn1nc[nH]c1=S)C1(Cl)CC1 (stereo not shown) [Prothioconazole] | – | – | – | – | solubility [1]: 341 mg/mL
CC(C)(C)C(O)(CCc1ccc(Cl)cc1)Cn1cncn1 (stereo not shown) [Tebuconazole] | – | – | – | – | solubility ([1]; Solubility in saturation): 181 mg/mL; solubility ([1]; t-butyl THF, Solubility in saturation, in t-butyl THF, saturated solution MT 181, HPLC, pure active ingredient): 188 mg/mL
O=C1CCCCC1 [Cyclohexanone] | 17.8 J/mL | 5.1 J/mL | 6.3 J/mL | 19.56 J/mL | –
CCCCOCC1CCCO1 (stereo not shown) [n-butyl THF, 2-(butoxymetyl)tetrahydrofuraan] | 16.47 J/mL | 5.96 J/mL | 4.74 J/mL | 18.15 J/mL | phytotoxicity on salads (spots) (Lactuca sativa): absence of phytotoxicity; inhibition of the microorganisms of the inoculum [3]: non-inhibitory
CCOC(C)=O [Ethyl Acetate] | 15.8 J/mL | 7.2 J/mL | 5.3 J/mL | 18.15 J/mL | –
CC(COc1ccc(Oc2ccccc2)cc1)Oc1ccccn1 (stereo not shown) [Pyriproxyfen] | – | – | – | – | solubility ([1]; Solubility in saturation): 631 mg/mL
CC1(C)CCC(Cc2ccc(Cl)cc2)C1(O)Cn1cncn1 (stereo not shown) [Metconazole] | – | – | – | – | solubility ([1]; Solubility in saturation): 210 mg/mL
